From patent publication US11001605B2, “Cyclic dinucleotides containing benzimidazole, method for the production of same, and use of same to activate stimulator of interferon genes (sting)-dependent signaling pathways” (BIOLOG LIFE SCIENCE INSTITUTE GmbH & Co. KG, priority 2016, dated 2021)
Values belong to the molecule of their own block, whether it stands above or below them.

How the values were obtained:
[1] = tested on: STING-induced dimerisation and phosphorylation of IRF3, STING-induced phosphorylation of TBK1; assay: STING-induced dimerisation and phosphorylation of IRF3 and phosphorylation of TBK1, Western Blot of THP-1 cell lysate; type: cell-based, human; settings: THP-1 cells, native gel and SDS-PAGE Western Blot, versus buffer control
Description: Cell line: THP-1 cells (Sigma Cat. No. 88081201-1VL) were isolated from peripheral blood of a patient with acute leukaemia.
After application of an inventive CDN or a buffer control to THP1 cells in a culture dish a cell lysate is prepared, of which one part is applied to a native polyacrylamide gel and the other part to two denaturing polyacrylamide gels (SDS-PAGE). The developed gels are analysed with Western Blot technique.
In case of the native gel an IRF3 antibody is used.
The presence of an inventive CDN results in the formation of a second band, showing a running behaviour, which corresponds to the doubled molecular weight of IRF3. This band represents the dimer of IRF3, that has been formed under the influence of an inventive CDN.
In case of the two denaturing gels, either an antibody against phosphorylated IRF3 or an antibody against phosphorylated TBK1 is used. In the buffer control for each of the gels only a very weak band is detected. After application of an inventive CDN, the intensities of these bands are much more pronounced. This increase of intensity reflects the phosphorylation of IRF3 and of TBK1, respectively, induced by the inventive CDNs. Both, the dimerisation of IRF3 and the detected phosphorylations are a direct result of STING activation.

[2] = Lipophilicity determination by gradient HPLC (log k′g); type: physicochemical; settings: HPLC gradient 1, RP-18, triethylammonium phosphate buffer pH 6.5 / methanol (ion pair chromatography)
Description: Gradient 1: Stationary phase: Polygosil 60-10, RP-18; 250×4 mm (Macherey & Nagel, DOren, Germany). Mobile phase A: 10 ml 1 M triethylammonium phosphate buffer (TEAP), pH 6.5+990 ml methanol. Mobile phase B: 10 ml 1 M TEAP, pH 6.5+990 ml H2O. Time program: 0 min: 100% B; 60 min: 100% A; 65 min: 100% A; 70 min: 100% B; 90 min: 100% B. Flow rate: 1.0 ml/min.
The octanol/water coefficient Log P is the commonly accepted indicator for the expected property of a given chemical entity to pass cellular membranes by passive diffusion. However, its practical determination for polar compounds such as multiply charged nucleotides is difficult in reality. Often, the information about membrane permeability must be received by fragmental analysis or other calculations.
Given this fact, an established HPLC method is used here, which is based on the measurement of retention on a reversed phase column^7. In contrast to Log P, this method yields the indicator log k′g, which allows for a ranking of different nucleotides of the same charge according to their lipophilicity.
Since CDNs are twofold negatively charged molecules which are only very insufficiently retarded on a reversed phase HPLC column, the determinations were performed in presence of the lipophilic triethylammonium cation (ion pair chromatography).
According to the established method^7 HPLC gradient 1 was used for the determination of lipophilicity.

STING signalling pathway = assay: Interferon-β promoter SEAP reporter assay in THP1-Blue cells; type: cell-based, human; settings: 0, 10, 20, 40 μg/ml, 24 hours
Description: Legend for Synthesis 4: THP1-Blue™ cells ((THP1-ISG); InvivoGen, catalogue number: thp-isg; concentration: 5×10^5/ml, 180 μl/well (96-well-plate) were incubated with inventive CDNs in different concentrations (0 μg/ml; 10 μg/ml; 20 μg/ml; 40 μg/ml) in medium (RPMI-1640, 2 mM L-glutamine, 1.5 g/I sodium bicarbonate, 4.5 g/I glucose, 10 mM HEPES, 1 mM sodium pyruvate, 10% FCS, 100 μg/ml Zeocin™, 110 μg/ml Normocin™, Pen-Strep 50 U/ml) for 24 hours at 37° C. in 5% CO2. The quantification was performed with SEAP detection reagent QUANTI-Blue™ (InvivoGen; catalogue number: rep-qb1; incubation time: 30 min at 37° C. in 5% CO2) by optical density (OD) determination at 625 nm.
Legend for Synthesis 5: THP1-Blue™ cells ((THP1-ISG); InvivoGen, catalogue number: thp-isg; concentration: 5×10^5/ml, 180 μl/well (96-well-plate) and THP1 Dual™ KO STING cells ((STING KO) InvivoGen, catalogue number: thpd-kostg; concentration: 5×10^5/ml, 180 μl/well (96-well-plate) were incubated with inventive CDNs (concentration 40 μg/ml each) in medium (RPMI-1640, 2 mM L-glutamine, 1.5 g/I sodium bicarbonate, 4.5 g/I glucose, 10 mM HEPES, 1 mM sodium pyruvate, 10% FCS, 100 μg/mL Zeocin™, 110 μg/mL Normocin™, Pen-Strep 50 U/mL) for 24 hours at 37° C. in 5% CO2. For incubations with THP1 Dual™ KO STING cells, 10 μg/ml of blasticidin were added to the medium. Quantification was performed with SEAP detection reagent QUANTI-Blue™ (InvivoGen; catalogue number: rep-qb1; incubation time: 15 min at 37° C. in 5% CO2) by optical density (OD) determination at 625 nm.
Cell line: THP1-Blue™ cells (InvivoGen, catalogue number: thp-isg) are derived from THP1 cells. THP1-Blue™ cells in a cell culture dish are stimulated by the administration of a CDN according to the invention or a buffer control.
In these genetically modified cells, the gene for secreted embryonic alkaline phosphatase (SEAP) is under the control of an interferon-β promoter.
After stimulation of the cells with an inventive CDN, the supernatant of the cell culture was removed and the enzymatic activity of SEAP was measured photometrically in a colorimetric assay by measuring the extinction at 625 nm (optical density; OD 625 nm).
Administration of an inventive CDN induces an increase in the activity of SEAP, which is a measure of the activity of the STING signalling pathway.

SMILES: Nc1nc2c(ncn2[C@@H]2O[C@@H]3COP(=O)(S)OC4C(O)[C@H](n5cnc6cc(Cl)c(Cl)cc65)O[C@@H]4COP(=O)(S)OC2C3O)c(=O)[nH]1 (stereo partly shown) [Compound 29, cyclic (guanosine-(2′ −> 5′)-monophosphorothioate-5,6-dichlorobenzimidazole riboside-(3′ −> 5′)-monophosphorothioate)]
STING-induced dimerisation of IRF3, phosphorylation of IRF3 and phosphorylation of TBK1 [1]: positive

log k′g [2]: 2.970
SMILES: O=P1(O)OC[C@H]2O[C@@H](n3cnc4cc(Cl)c(Cl)cc43)C(O)C2OP(=O)(O)OC[C@H]2O[C@@H](n3cnc4cc(Cl)c(Cl)cc43)C(O)C2O1 (stereo partly shown) [Compound 7, cyclic (5,6-dichlorobenzimidazole riboside-(3′ −> 5′)-monophosphate-5,6-dichlorobenzimidazole riboside-(3′ −> 5′)-monophosphate)]

SMILES: Nc1nc2c(ncn2[C@@H]2O[C@@H]3COP(=O)(O)O[C@H]4[C@@H](O)[C@H](n5cnc6c(N)ncnc65)O[C@@H]4COP(=O)(O)O[C@@H]2[C@@H]3O)c(=O)[nH]1 [2′,3′-cGAMP, reference compound]
log k′g [2]: 0.766

log k′g [2]: 1.732
SMILES: O=P1(O)OC[C@H]2O[C@@H](n3cnc4ccccc43)C(O)C2OP(=O)(O)OC[C@H]2O[C@@H](n3cnc4ccccc43)C(O)C2O1 (stereo partly shown) [Compound 1, cyclic (benzimidazole riboside- (3′ −> 5′)-monophosphate- benzimidazole riboside-(3′ −> 5′)- monophosphate)]

log k′g ([2]; listed as 98, MI2): 1.584
SMILES: Nc1ncnc2c1ncn2[C@@H]1O[C@@H]2COP(=O)(S)OC3C(O)[C@@H](COP(=O)(S)OC2C1O)O[C@H]3n1cnc2ccccc21 (single isomer, unassigned) [Compound 98, MI2, Cyclic (adenosine-(3′→5′)-monophosphorothioate-benzimidazole riboside-(2′→5′)-monophosphorothioate)]

log k′g [2]: 2.039
SMILES: Nc1ncnc2c1ncn2[C@@H]1O[C@@H]2COP(=O)(O)OC3C(O)[C@H](n4cnc5cc(Cl)c(Cl)cc54)O[C@@H]3COP(=O)(O)OC2C1F (stereo partly shown) [Compound 81, cyclic (2′-fluoro-2′-deoxyadenosine-(3′ −> 5′)-monophosphate-5,6-dichlorobenzimidazole riboside-(3′ −> 5′)-monophosphate)]
SEAP activity, elevated OD at 625 nm, concentration-dependent (STING signalling pathway): positive

SMILES: Nc1nc2c(ncn2[C@@H]2O[C@@H]3COP(=O)(S)OC4C(O)[C@@H](COP(=O)(S)OC2C3O)O[C@H]4n2cnc3cc(Cl)c(Cl)cc32)c(=O)[nH]1 (stereo partly shown) [Compound 30, cyclic (guanosine-(2′ −> 5′)-monophosphorothioate-5,6-dichlorobenzimidazole riboside-(2′ −> 5′)-monophosphorothioate)]
STING-induced dimerisation of IRF3, phosphorylation of IRF3 and phosphorylation of TBK1 [1]: positive

SMILES: Nc1nc2c(ncn2[C@@H]2O[C@@H]3COP(=O)(O)O[C@H]4[C@@H](O)[C@H](n5cnc6c(=O)[nH]c(N)nc65)O[C@@H]4COP(=O)(O)O[C@H]3[C@H]2O)c(=O)[nH]1 [c-diGMP, reference compound]
log k′g [2]: 0.840

log k′g ([2]; listed as 29, MI1): 2.318
SMILES: Nc1nc2c(ncn2[C@@H]2O[C@@H]3COP(=O)(S)OC4C(O)[C@H](n5cnc6cc(Cl)c(Cl)cc65)O[C@@H]4COP(=O)(S)OC2C3O)c(=O)[nH]1 (single isomer, unassigned) [Compound 29, MI1, Cyclic (guanosine-(2′→5′)-monophosphorothioate-5,6-dichlorobenzimidazole riboside-(3′→5′)-monophosphorothioate)]

SMILES: O=P1(S)OC[C@H]2O[C@@H](n3cnc4ccccc43)C(O)C2OP(=O)(S)OC[C@H]2O[C@@H](n3cnc4ccccc43)C(O)C2O1 (stereo partly shown) [Compound 4, cyclic (benzimidazole riboside- (3′ −> 5′)-monophosphorothioate- benzimidazole riboside-(3′ −> 5′)- monophosphorothioate)]
STING-induced dimerisation of IRF3, phosphorylation of IRF3 and phosphorylation of TBK1 [1]: positive

log k′g ([2]; listed as 23, MI2): 1.658
SMILES: Nc1nc2c(ncn2[C@@H]2O[C@@H]3COP(=O)(S)OC4C(O)[C@H](n5cnc6ccccc65)O[C@@H]4COP(=O)(S)OC2C3O)c(=O)[nH]1 (single isomer, unassigned) [Compound 23, MI2, Cyclic (guanosine-(2′→5′)-monophosphorothioate-benzimidazole riboside-(3′→5′)-monophosphorothioate)]
SEAP activity, elevated OD at 625 nm, concentration-dependent (STING signalling pathway): positive

log k′g ([2]; listed as 23, MI1): 1.509
SMILES: Nc1nc2c(ncn2[C@@H]2O[C@@H]3COP(=O)(S)OC4C(O)[C@H](n5cnc6ccccc65)O[C@@H]4COP(=O)(S)OC2C3O)c(=O)[nH]1 (single isomer, unassigned) [Compound 23, MI1, Cyclic (guanosine-(2′→5′)-monophosphorothioate-benzimidazole riboside-(3′→5′)-monophosphorothioate)]

log k′g [2]: 1.211
SMILES: O=c1[nH]cnc2c1ncn2[C@@H]1O[C@@H]2COP(=O)(O)OC3C(O)[C@H](n4cnc5ccccc54)O[C@@H]3COP(=O)(O)OC2C1F (stereo partly shown) [Compound 85, cyclic (2′-fluoro-2′-deoxyinosine-(3′ −> 5′)-monophosphate-benzimidazole riboside-(3′ −> 5′)-monophosphate)]

SMILES: O=P1(S)OC[C@H]2O[C@@H](n3cnc4cc(Cl)c(Cl)cc43)C(O)C2OP(=O)(S)OC[C@H]2O[C@@H](n3cnc4cc(Cl)c(Cl)cc43)C(O1)C2O (stereo partly shown) [Compound 11, cyclic (5,6-dichlorobenzimidazole riboside-(2′ −> 5′)-monophosphorothioate-(5,6-dichlorobenzimidazole riboside-(3′ −> 5′)-monophosphorothioate)]
STING-induced dimerisation of IRF3, phosphorylation of IRF3 and phosphorylation of TBK1 [1]: positive
